Where no end group is shown, it is not given here.
Tests used:
Type in all cases: in vivo, maize
[1] = system: B73 and fea3 mutant seedlings; experiment: Clavata3-like peptide root assay (primary root length of seedlings on agar plates); details: 5 μM or 10 μM peptide, after 7 days
Description: To analyze whether FEA3 responds to CLV3-like peptides, and determine if they act in a common pathway, a CLV3 peptide assay was performed. The peptides used were ZCL3 (Zea mays CLE-like 3; SEQ ID NO:32), FCP1 (SEQ ID NO:33), CLV3 (SEQ ID NO:34), CLE20 (SEQ ID NO:35), CLE40 (SEQ ID NO:36), ZCL21 ([…]; SEQ ID NO:37), and ZCL23 (Zea mays CLE-like 23; SEQ ID NO:38).
The ZCL peptides were found in maize sequences in the NCBI database by homology search using the CLV3, CLE, and rice related peptides (Fiers et al Plant Cell (2005), 17: 2542-2553; Suzaki et al (2008), Plant Cell, 20: 2049-2058).
B73 and fea3 mutant seedlings were germinated and grown on agar plates containing each 5 μM or 10 μM peptide. As a control, seedlings were also grown on plates containing a scramble of the peptide. After 7 days the length of the primary root was measured.

[2] = system: B73 and homozygous fea2 and fea3 mutant seedlings; experiment: Clavata3 peptide root assay (primary root length of seedlings on agar plates); details: agar plates containing CLV3 peptide, after 7 days
Description: In Arabidopsis, CLAVATA2 activity can be detected by responses of root growth to CLAVATA3 (CLV3) peptide. To analyze whether FEA3 and FEA2 respond to CLV3, and determine if they act in a common pathway a CLV3 peptide assay was performed. B73 and homozygous fea2 and fea3 mutant seedlings were germinated and grown on agar plates containing CLV3 peptide. As a control, seedlings were also grown on plates containing a mutated version of the peptide and on plates without any peptide. After 7 days the length of the primary root was measured.

Wt and fea3 embryos = experiment: Embryo culture assay in presence of FCP1 peptide (embryo SAM growth); details: 20 μM peptide, two weeks after planting
Description: Wt and fea3 embryos were cultured in the presence of 20 μM FCP1 peptide (SEQ ID NO:33) or 20 μM scrambled peptide. For measurement of embryo SAM growth, about 10 days after pollination, embryos were sterilized (whole corn was sterilized, not individual young seeds) and dissected embryos and put the embryos down on the media and the measurement of SAM size was done two weeks after planting (embryo culture).

Row | Substance | root growth response (length of the primary root) ([1]; B73 wild type plants) | root growth response (length of the primary root) ([2]; B73 wild type plants) | root growth response (length of the primary root) ([2]; homozygous fea2 mutants) | root growth response (length of the primary root) ([2]; homozygous fea3 mutants) | root growth response (length of the primary root) ([1]; fea3 mutants) | embryo SAM growth (SAM size) (Wt and fea3 embryos; WT embryos) | embryo SAM growth (SAM size) (Wt and fea3 embryos; fea3 embryos)
1 | ZCL3: Zea mays CLE-like 3 peptide, found in maize sequences by homology search using CLV3, CLE and rice related peptides (RPVPSGPDPIHH; Zea mays) | strong root growth inhibition |  |  |  |  |  | 
2 | CLV3: CLAVATA3 (CLV3) peptide (RTVPSGPDPLHH; ends and bridges not checked; listed as Arabidopsis thaliana) | strong root growth inhibition | strong root growth inhibition | do not respond | respond |  |  | 
3 | FCP1: CLV3-like peptide used for the CLV3/CLV3-like peptide assay (REVPTGPDPIHH; listed as Oryza sativa) | strong root growth inhibition |  |  |  | less sensitivity | strongly inhibited | resistance

Reference: patent US11643665B2, “Nucleotide sequences encoding Fasciated EAR3 (FEA3) and methods of use thereof” (CORTEVA AGRISCIENCE LLC, priority 2012, dated 2023)
